Source: patent publication US10894807B2 (Siemens Medical Solutions USA, Inc., priority 2011, dated 2021)

Molecular target: human PSMA (Homo sapiens (Human), UniProt Q04609)
Assay: Enzymatic assay for in vitro evaluation of PSMA inhibitors (fluorescent assay of PSMA activity, NAAG substrate, OPA detection of glutamate)
Format: biochemical

Sequence of human PSMA (Q04609 whole entry): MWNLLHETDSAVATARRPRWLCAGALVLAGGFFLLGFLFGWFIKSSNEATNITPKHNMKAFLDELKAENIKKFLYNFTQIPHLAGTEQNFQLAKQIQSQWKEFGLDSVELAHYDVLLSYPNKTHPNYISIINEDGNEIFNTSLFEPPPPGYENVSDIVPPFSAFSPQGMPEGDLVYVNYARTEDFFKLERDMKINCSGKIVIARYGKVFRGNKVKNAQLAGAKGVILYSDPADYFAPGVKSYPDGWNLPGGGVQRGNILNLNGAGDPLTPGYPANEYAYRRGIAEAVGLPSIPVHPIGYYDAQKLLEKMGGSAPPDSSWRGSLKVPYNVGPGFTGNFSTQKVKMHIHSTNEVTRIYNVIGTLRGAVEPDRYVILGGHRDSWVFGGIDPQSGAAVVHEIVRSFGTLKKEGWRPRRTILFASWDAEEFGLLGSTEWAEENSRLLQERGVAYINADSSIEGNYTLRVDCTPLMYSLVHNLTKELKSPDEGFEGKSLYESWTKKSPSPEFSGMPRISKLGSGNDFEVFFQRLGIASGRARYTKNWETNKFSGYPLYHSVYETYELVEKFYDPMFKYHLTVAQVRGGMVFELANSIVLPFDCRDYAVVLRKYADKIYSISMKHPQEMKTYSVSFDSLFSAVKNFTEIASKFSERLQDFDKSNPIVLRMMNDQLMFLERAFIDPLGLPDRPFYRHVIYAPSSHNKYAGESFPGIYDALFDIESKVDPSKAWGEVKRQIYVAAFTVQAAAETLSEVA

Ki | PSMA Blkg % (1.0 μM) | Structure (SMILES)
3.4 nM | 100% | O=C(O)CC[C@H](NC(=O)N[C@@H](Cc1ccc(NC(=O)N2CCN(C(=O)c3ccc(-n4cc(CCCF)nn4)cc3)CC2)cc1)C(=O)O)C(=O)O [P248, (S)-2-(3-((S)-1-Carboxy-2-(4-(4-(4-(4-(3-fluoropropyl)-1H-1,2,3-triazol-1-yl)benzoyl)piperazine-1-carboxamido)phenyl)ethyl)ureido)pentanedioic Acid]
4.1 nM | 96% | O=C(O)CC[C@H](NC(=O)N[C@@H](CC1CCN(C(=S)Nc2ccc(-n3cc(CCCF)nn3)cc2)CC1)C(=O)O)C(=O)O [P250, (S)-2-(3-((S)-1-Carboxy-2-(1-((4-(4-(3-fluoropropyl)-1H-1,2,3-triazol-1-yl)phenyl)carbamothioyl)piperidin-4-yl)ethyl)ureido)pentanedioic Acid]
0.34 nM | 100% | O=C(O)CC[C@H](NC(=O)N[C@@H](CCCCNc1cc(OCCOCCOCCn2cc(CCCF)nn2)ccc1[N+](=O)[O-])C(=O)O)C(=O)O [P251, (S)-2-(3-((S)-1-Carboxy-5-((5-(2-(2-(2-(4-(3-fluoropropyl)-1H-1,2,3-triazol-1-yl)ethoxy)ethoxy)ethoxy)-2-nitrophenyl)amino)pentyl)ureido)pentanedioic Acid]
0.2 nM | 96% | O=C(O)CC[C@H](NC(=O)N[C@@H](Cc1ccc(NC(=O)c2cc(C(=O)O)cc(-n3cc(CCCF)nn3)c2)cc1)C(=O)O)C(=O)O [P253, (S)-2-(3-((S)-1-Carboxy-2-(4-(3-carboxy-5-(4-(3-fluoropropyl)-1H-1,2,3-triazol-1-yl)benzamido)phenyl)ethyl)ureido)pentanedioic Acid]
0.4 nM | 95% | O=C(O)CC[C@H](NC(=O)N[C@@H](CCCCNc1nc(-c2cccc(NC(=O)CCOCCOCCOCCOCCNC(=O)Cn3cc(CCCF)nn3)c2)cs1)C(=O)O)C(=O)O [P254, (S)-2-(3-((S)-1-Carboxy-5-(4-(3-(1-(4-(3-fluoropropyl)-1H-1,2,3-triazol-1-yl)-2-oxo-6,9,12,15-tetraoxa-3-azaoctadecanamido)phenyl)thiazol-2-ylamino)pentyl)ureido)-pentanedioic Acid]
– | 62% | C[C@@](Cc1cccc(NC(=O)CCCn2cc(CCCF)nn2)c1)(NC(=O)N[C@@H](CCC(=O)O)C(=O)O)C(=O)O [P255, (S)-2-(3-((S)-2-Carboxy-1-(3-(4-(4-(3-fluoropropyl)-1H-1,2,3-triazol-1-yl)butanamido)-phenyl)propan-2-yl)ureido)pentanedioic Acid]
– | 27% | C[C@@](Cc1cccc(NC(=O)Cn2cc(CCCF)nn2)c1)(NC(=O)N[C@@H](CCC(=O)O)C(=O)O)C(=O)O [P256, (S)-2-(3-((S)-2-Carboxy-1-(3-(2-(4-(3-fluoropropyl)-1H-1,2,3-triazol-1-yl)acetamido)-phenyl)propan-2-yl)ureido)pentanedioic Acid]
– | 5% | O=C(O)CCC(C(=O)O)N1C(=O)N[C@@H](CC2CCN(C(=O)c3ccc(-n4cc(CCCF)nn4)cc3)CC2)C1=O (stereo partly drawn) [P257, 2-((S)-4-((1-(4-(4-(3-Fluoropropyl)-1H-1,2,3-triazol-1-yl)benzoyl)piperidin-4-yl)methyl)-2,5-dioxoimidazolidin-1-yl)pentanedioic Acid]
41 nM | – | NCCOCCOCCOCCOCCn1cc(-c2ccc(C(=O)NCCCC[C@H](NC(=O)N[C@@H](CCC(=O)O)C(=O)O)C(=O)O)cc2)nn1 [P258, (S)-2-(3-((S)-5-(4-(1-(14-Amino-3,6,9,12-tetraoxatetradecyl)-1H-1,2,3-triazol-4-yl)benzamido)-1-carboxypentyl)ureido)pentanedioic Acid]
– | 98% | O=C(O)CC[C@H](NC(=O)N[C@@H](CCCCNC(=O)c1cc(C(=O)O)cc(-n2cc(CCCF)nn2)c1)C(=O)O)C(=O)O [P259, (S)-2-(3-((S)-1-Carboxy-5-(3-carboxy-5-(4-(3-fluoropropyl)-1H-1,2,3-triazol-1-yl)benzamido)pentyl)ureido)pentanedioic Acid]
– | 81% | CCN(CC)C(=O)c1cc(C(=O)NCCCC[C@H](NC(=O)N[C@@H](CCC(=O)O)C(=O)O)C(=O)O)cc(-n2cc(CCCF)nn2)c1 [P260, (S)-2-(3-((S)-1-Carboxy-5-(3-(diethylcarbamoyl)-5-(4-(3-fluoropropyl)-1H-1,2,3-triazol-1-yl)benzamido)pentyl)ureido)pentanedioic Acid]
1 nM | 98% | O=C(O)CC[C@H](NC(=O)N[C@@H](CCCCNC(=O)CC[C@H](NC(=O)Cn1cc(CCCF)nn1)C(=O)NCCCC[C@H](NC(=O)N[C@@H](CCC(=O)O)C(=O)O)C(=O)O)C(=O)O)C(=O)O [P261, (3S,7S,14S,23S,27S)-14-(2-(4-(3-Fluoropropyl)-1H-1,2,3-triazol-1-yl)acetamido)-5,13,17,25-tetraoxo-4,6,12,18,24,26-hexaazanonacosane-1,3,7,23,27,29-hexacarboxylic Acid]
– | 96% | O=C(O)CC[C@H](NC(=O)N[C@@H](CCCCNC(=O)N1CCN(C(=O)c2cc(C(=O)O)cc(-n3cc(CCCF)nn3)c2)CC1)C(=O)O)C(=O)O [P262, (S)-2-(3-((S)-1-Carboxy-5-(4-(3-carboxy-5-(4-(3-fluoropropyl)-1H-1,2,3-triazol-1-yl)benzoyl)piperazine-1-carboxamido)pentyl)ureido)pentanedioic Acid]
1.3 nM | 98% | O=C(O)CC[C@H](NC(=O)N[C@@H](CCCCNC(=O)N1CCN(C(=O)c2cc(C(=O)N3CCN(C(=O)NCCCC[C@@H](NC(=O)N[C@H](CCC(=O)O)C(=O)O)C(=O)O)CC3)cc(-n3cc(CCCF)nn3)c2)CC1)C(=O)O)C(=O)O [P263, (2S,2′S)-2,2′-(((((1S,1′S)-((4,4′-(5-(4-(3-Fluoropropyl)-1H-1,2,3-triazol-1-yl)-isophthaloyl)bis(piperazine-1,1′-carbonyl))bis(azanediyl))bis(1-carboxypentane-5,1-diyl))bis(azanediyl))bis(carbonyl))bis(azanediyl))dipentanedioic Acid]
– | 96% | CCN(CC)C(=O)c1cc(C(=O)N2CCN(C(=O)NCCCC[C@H](NC(=O)N[C@@H](CCC(=O)O)C(=O)O)C(=O)O)CC2)cc(-n2cc(CCCF)nn2)c1 [P264, (S)-2-(3-((S)-1-Carboxy-5-(4-(3-(diethylcarbamoyl)-5-(4-(3-fluoropropyl)-1H-1,2,3-triazol-1-yl)benzoyl)piperazine-1-carboxamido)pentyl)ureido)pentanedioic Acid]
– | 97% | O=C(O)CC[C@H](NC(=O)N[C@@H](CCCCNc1nc(F)ccc1[N+](=O)[O-])C(=O)O)C(=O)O [P265, (S)-2-(3-((S)-1-Carboxy-5-((6-fluoro-3-nitropyridin-2-yl)amino)pentyl)ureido)pentanedioic Acid]

Structure (SMILES) | Ki | PSMA Blkg % (1.0 μM)
O=C(O)CCC(NC(=O)C[C@@H](NC(=O)CCNC(=O)c1cc(C(=O)NCCC(=O)N[C@H](CC(=O)NC(CCC(=O)O)C(=O)O)C(=O)O)cc(-n2cc(CCCF)nn2)c1)C(=O)O)C(=O)O (stereo partly drawn) [P252, (2S,2′S)-2,2′-(((3R,3′R)-3,3′-((3,3′-((5-(4-(3-Fluoropropyl)-1H-1,2,3-triazol-1-yl)isophthaloyl)bis(azanediyl))bis(propanoyl))bis(azanediyl))bis(3-carboxypropanoyl))bis(azanediyl))dipentanedioic Acid] | 94 nM | 59%
